The assay has as its target T1, Human neutrophil elastase (Homo sapiens, UniProt P08246).
T1 construct: purchased Calbiochem 324681
T1 sequence (P08246 30-267): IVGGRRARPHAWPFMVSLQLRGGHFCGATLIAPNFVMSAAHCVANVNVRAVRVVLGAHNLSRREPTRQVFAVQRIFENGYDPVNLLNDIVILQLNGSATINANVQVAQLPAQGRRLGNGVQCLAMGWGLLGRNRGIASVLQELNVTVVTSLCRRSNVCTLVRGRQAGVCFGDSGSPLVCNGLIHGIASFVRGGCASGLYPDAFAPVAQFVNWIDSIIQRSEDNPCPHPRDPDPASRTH
Kind of assay: Human Neutrophil Elastase Assay. To be noted: substrate MeOSuc-Ala-Ala-Pro-Val-AMC 250 μM, pH 7.5, fluorescence. It counts as biochemical. As for the experimental part:
Human Neutrophil Elastase Assay
Materials: Human neutrophil elastase was purchased from Calbiochem (Cat. No.: 324681) and the elastase substrate MeOSuc-Ala-Ala-Pro-Val-AMC from Bachem (Cat. No.: 1-1270). All other materials were of the highest grade commercially available. The following buffers were used: Compound buffer: 100 mM Tris, 500 mM NaCl, adjusted to pH 7.5; Assay buffer: 100 mM Tris, 500 mM NaCl, adjusted to pH 7.5, containing 0.01% BSA. Assay conditions: Test compounds were prediluted in DMSO and subsequently in compound buffer (5% DMSO final). 5 μL of these compound dilutions were mixed with 10 μl Neutrophil elastase (9 ng/ml in assay buffer) in a black 384 well OptiPlate (Perkin Elmer, Cat No.: 6007270) and incubated for 15 min at room temperature. Subsequently 10 μL substrate solution in assay buffer were added (250 μM final concentration) and the plates were incubated for 60 min at room temperature. After inactivation of the enzyme, fluorescence intensities were measured at 380 nm excitation and 460 nm emission wavelengths. Each plate contains wells with a high value control (DMSO+enzyme+substrate) and wells with a low value control (DMSO+inactivated enzyme+substrate). IC50 values were estimated using a sigmoidal concentration response curve with variable slope. Means of low values were taken as 0%, means of high values as 100%.
`Cc1nc(N=S(C)(=O)c2ccc(CNC(=O)c3cc(-c4ccnn4C)c(C)n(-c4cccc(C(F)(F)F)c4)c3=O)cc2)oc1C` (stereo not shown) [Example 7, N-[[4-[N-(4,5-Dimethyloxazol-2-yl)-S-methyl-sulfonimidoyl]phenyl]methyl]-6-methyl-5-(2-methylpyrazol-3-yl)-2-oxo-1-[3-(trifluoromethyl)phenyl]pyridine-3-carboxamide] displayed an IC50 of 34.3 nM.

In turn, `Cc1c(-c2ccnn2C)cc(C(=O)NCc2ccc(S(C)(=O)=NC(N)=O)cc2)c(=O)n1-c1cccc(C(F)(F)F)c1` (stereo not shown) [Example 6, N-[[4-(N-Carbamoyl-S-methyl-sulfonimidoyl)phenyl]methyl]-6-methyl-5-(2-methyl-pyrazol-3-yl)-2-oxo-1-[3-(trifluoromethyl)phenyl]pyridine-3-carboxamide] yielded a half-inhibitory concentration (IC50) of 45.8 nM.

The compound `Cc1c(-c2ccnn2C)cc(C(=O)NCc2ccc(S(C)(=O)=NC(=O)N3CCOCC3)cc2)c(=O)n1-c1cccc(C(F)(F)F)c1` (stereo not shown) [Example 9.2] showed an IC50 of 72.7 nM.

Regarding `COCCN=S(C)(=N)c1ccc(CNC(=O)c2cc(-c3ccnn3C)c(C)n(-c3cccc(C(F)(F)F)c3)c2=O)cc1` (stereo not shown) [Example 15, N-[[4-[N-(2-Methoxyethyl)-S-methyl-sulfonodiimidoyl]phenyl]methyl]-6-methyl-5-(2-methylpyrazol-3-yl)-2-oxo-1-[3-(trifluoromethyl)phenyl]pyridine-3-carboxamide], 43.5 nM corresponded to half-maximal inhibition (IC50).

Take `CN=S(=O)(c1ccc(CNC(=O)c2cc(-c3ccnn3C)c(C)n(-c3cccc(C(F)(F)F)c3)c2=O)cc1)N1CCCCC1` (stereo not drawn) [Example 13, 6-Methyl-N-[[4-[N-methyl-S-(1-piperidyl)sulfonimidoyl]phenyl]methyl]-5-(2-methyl-pyrazol-3-yl)-2-oxo-1-[3-(trifluoromethyl)phenyl]pyridine-3-carboxamide]: the IC50 was 28.4 nM.

For `CN=S(C)(=N)c1ccc(CNC(=O)c2cc(-c3ccnn3C)c(C)n(-c3cccc(C(F)(F)F)c3)c2=O)cc1` (stereo not shown) [Example 15.1], the IC50 is 88.7 nM.

Consider `Cc1c(-c2ccnn2-c2ccc(C#N)cc2)nc(C(=O)NCc2ccc(S(C)(=O)=NC#N)cc2)c(=O)n1-c1cccc(C(F)(F)F)c1` (single isomer, unassigned) [Example 17, N-[[4-(N-Cyano-S-methyl-sulfonimidoyl)phenyl]methyl]-6-[2-(4-cyanophenyl)pyrazol-3-yl]-5-methyl-3-oxo-4-[3-(trifluoromethyl)phenyl]pyrazine-2-carboxamide], for which the half-inhibitory concentration (IC50) was less than 1 nM.

As for `CN=S(=O)(NCc1ccccc1)c1ccc(CNC(=O)c2cc(-c3ccnn3C)c(C)n(-c3cccc(C(F)(F)F)c3)c2=O)cc1` (stereo not shown) [Example 1.2], the IC50 worked out at 14.4 nM.

Compound `Cc1c(-c2ccnn2C)cc(C(=O)NCc2ccc(S(C)=N)cc2)c(=O)n1-c1cccc(C(F)(F)F)c1` (stereo not shown) [Example 2, 6-Methyl-5-(2-methylpyrazol-3-yl)-N-[[4-(methylsulfinimidoyl)phenyl]methyl]-2-oxo-1-[3-(trifluoromethyl)phenyl]pyridine-3-carboxamide] registered a concentration for half-maximal inhibition (IC50) of 42 nM.

Compound `CN=S(C)(=O)c1ccc(CNC(=O)c2cc(-c3ccnn3C)c(C)n(-c3cccc(C(F)(F)F)c3)c2=O)cc1` (stereo not shown) [Example 11, N-[[4-(N,S-Dimethylsulfonimidoyl)phenyl]methyl]-6-methyl-5-(2-methylpyrazol-3-yl)-2-oxo-1-[3-(trifluoromethyl)phenyl]pyridine-3-carboxamide] registered a 50% inhibitory concentration (IC50) of 40.3 nM.

On to `Cc1c(-c2ccnn2C)cc(C(=O)NCc2ccc(S(C)(=N)=O)cc2)c(=O)n1-c1cccc(C(F)(F)F)c1` (racemic) [Example 4, 6-Methyl-5-(2-methylpyrazol-3-yl)-N-[[4-(methylsulfonimidoyl)phenyl]methyl]-2-oxo-1-[3-(trifluoromethyl)phenyl]pyridine-3-carboxamide], for which inhibition was half-maximal at 173 nM (IC50).

For `Cc1c(-c2ccnn2C)cc(C(=O)NCc2ccc(S(C)(=N)=O)cc2)c(=O)n1-c1cccc(C(F)(F)F)c1` (single isomer, unassigned) [Example 4A], the half-maximal inhibitory concentration (IC50) was found to be 93.9 nM.

In the case of `Cc1c(-c2ccnn2C)cc(C(=O)NCc2ccc(/S(C)=N/C#N)cc2)c(=O)n1-c1cccc(C(F)(F)F)c1` (stereo not shown) [Example 1, N-[[4-(N-Cyano-S-methyl-sulfinimidoyl)phenyl]methyl]-6-methyl-5-(2-methyl-pyrazol-3-yl)-2-oxo-1-[3-(trifluoromethyl)phenyl]pyridine-3-carboxamide], the IC50 turned out to be 1.2 nM.

`Cc1c(-c2ccnn2C)cc(C(=O)NCc2ccc(S(C)(=N)=NC#N)cc2)c(=O)n1-c1cccc(C(F)(F)F)c1` (stereo not shown) [Example 15.2] had an IC50 of 6.7 nM.

Turning to `CN=S(=O)(c1ccc(CNC(=O)c2cc(-c3ccnn3C)c(C)n(-c3cccc(C(F)(F)F)c3)c2=O)cc1)N(C)C` (stereo not shown) [Example 1.1], the IC50 was 11.4 nM.

As to `Cc1c(-c2ccnn2C)cc(C(=O)NCc2ccc(/S(C)=N/C(N)=O)cc2)c(=O)n1-c1cccc(C(F)(F)F)c1` (stereo not shown) [Example 5, N-[[4-(N-Carbamoyl-S-methyl-sulfinimidoyl)phenyl]methyl]-6-methyl-5-(2-methyl-pyrazol-3-yl)-2-oxo-1-[3-(trifluoromethyl)phenyl]pyridine-3-carboxamide], the IC50 turned out to be 35.7 nM.

As for `CN=S(=O)(c1ccc(CNC(=O)c2cc(-c3ccnn3C)c(C)n(-c3cccc(C(F)(F)F)c3)c2=O)cc1)N(C)OC` (stereo not shown) [Example 1.3], the 50% inhibitory concentration (IC50) was 12.5 nM.

`Cc1c(-c2ccnn2C)cc(C(=O)NCc2ccc(S(C)(=O)=NS(C)(=O)=O)cc2)c(=O)n1-c1cccc(C(F)(F)F)c1` (stereo not shown) [Example 9.3] displayed an IC50 of 12.6 nM.

`Cc1c(-c2ccnn2C)nc(C(=O)NCc2ccc(S(C)(=O)=NC#N)cc2)c(=O)n1-c1cccc(C(F)(F)F)c1` (single isomer, unassigned) [Example 16, N-[[4-(N-Cyano-S-methyl-sulfonimidoyl)phenyl]methyl]-5-methyl-6-(2-methylpyrazol-3-yl)-3-oxo-4-[3-(trifluoromethyl)phenyl]pyrazine-2-carboxamide] showed an IC50 of 11.1 nM.

On to `Cc1c(-c2ccnn2C)cc(C(=O)NCc2ccc(S(C)(=N)=N)cc2)c(=O)n1-c1cccc(C(F)(F)F)c1` [Example 14, 6-Methyl-5-(2-methylpyrazol-3-yl)-N-[[4-(methylsulfonodiimidoyl)phenyl]methyl]-2-oxo-1-[3-(trifluoromethyl)phenyl]pyridine-3-carboxamide], for which the midpoint of inhibition, the IC50, lay at 261 nM.

Compound `Cc1c(-c2ccnn2C)cc(C(=O)NCc2ccc(S(C)(=N)=O)cc2)c(=O)n1-c1cccc(C(F)(F)F)c1` (single isomer, unassigned) [Example 4B] came in with an IC50 of 41.5 nM.

Compound `Cc1c(-c2ccnn2C)cc(C(=O)NCc2ccc(S(C)(=O)=NC#N)cc2)c(=O)n1-c1cccc(C(F)(F)F)c1` (single isomer, unassigned) [Example 3A] registered an IC50 of 4.5 nM.

As for `COC(=O)N=S(C)(=O)c1ccc(CNC(=O)c2cc(-c3ccnn3C)c(C)n(-c3cccc(C(F)(F)F)c3)c2=O)cc1` (stereo not shown) [Example 9, Methyl N-[Methyl-[4-[[[6-methyl-5-(2-methylpyrazol-3-yl)-2-oxo-1-[3-(trifluoromethyl)phenyl]pyridine-3-carbonyl]amino]methyl]phenyl]-oxo-λ^6-sulfanylidene]-carbamate], the IC50 was found to be 17.6 nM.

`CNC(=O)N=S(C)(=O)c1ccc(CNC(=O)c2cc(-c3ccnn3C)c(C)n(-c3cccc(C(F)(F)F)c3)c2=O)cc1` (stereo not shown) [Example 10, 6-Methyl-N-[[4-[S-methyl-N-(methylcarbamoyl)sulfonimidoyl]phenyl]methyl]-5-(2-methylpyrazol-3-yl)-2-oxo-1-[3-(trifluoromethyl)phenyl]pyridine-3-carboxamide] had a half-inhibitory concentration (IC50) of 50 nM.

For `Cc1c(-c2ccnn2C)cc(C(=O)NCc2ccc(S(C)(=O)=NC#N)cc2)c(=O)n1-c1cccc(C(F)(F)F)c1` (single isomer, unassigned) [Example 3B], the IC50 was 2.3 nM.

`Cc1c(-c2ccnn2C)cc(C(=O)NCc2ccc(S(C)(=O)=NC#N)cc2)c(=O)n1-c1cccc(C(F)(F)F)c1` (racemic) [Example 3, N-[[4-(N-Cyano-S-methyl-sulfonimidoyl)phenyl]methyl]-6-methyl-5-(2-methylpyrazol-3-yl)-2-oxo-1-[3-(trifluoromethyl)phenyl]pyridine-3-carboxamide] yielded an IC50 of 2.6 nM.

`Cc1c(-c2ccnn2C)cc(C(=O)NCc2ccc(S(C)(=O)=N/C(N)=N/O)cc2)c(=O)n1-c1cccc(C(F)(F)F)c1` (stereo not shown) [Example 8, N-[[4-[N—[N-Hydroxycarbamimidoyl]-S-methyl-sulfonimidoyl]phenyl]methyl]-6-methyl-5-(2-methylpyrazol-3-yl)-2-oxo-1-[3-(trifluoromethyl)phenyl]pyridine-3-carboxamide] gave an IC50 of 64.4 nM.

Turning to `CC(=O)N=S(C)(=O)c1ccc(CNC(=O)c2cc(-c3ccnn3C)c(C)n(-c3cccc(C(F)(F)F)c3)c2=O)cc1` (stereo not shown) [Example 9.1], the half-maximal inhibitory concentration (IC50) was found to be 37 nM.

These data come from patent publication US9221807B2, “Substituted pyridones and pyrazinones and their use as inhibitors of neutrophil elastase activity” (Boehringer Ingelheim International GmbH, priority 2014, dated 2015).
